From patent publication US20230338392A1, “SUBCUTANEOUS ADMINISTRATION OF AN ASBT INHIBITOR” (Albireo AB, priority 2022, published 2023)

How the values were obtained:
[1] = Plasma concentration following subcutaneous or intravenous administration; format: in vivo, male C57BL/6 mice
Protocol: Elobixibat was administered to male C57BL/6 mice (n=5) as a subcutaneous injection at a dose of 3 or 10 mg/kg or as an intravenous injection at a dose of 1 mg/kg (single injections), or as repeated subcutaneous injections at a dose of 1 mg/kg at day 1 and day 5. Elobixibat was formulated in 70% PEG400; 10% ethanol; and 20% water and given at a dosing volume of 5 mL/kg subcutaneously or 1 mL/kg intravenously. Blood samples were collected after 0.25, 0.5, 1, 2, 4, 6, 8 and 24 hours following subcutaneous administration and after 0.083, 0.25, 0.5, 1, 2, 4, 6, 8 and 24 hours following intravenous administration. Blood samples were taken from saphenous vein. 0.2% EDTA was used as the anticoagulant. The samples were analyzed by a discovery grade bioanalytical method developed for the estimation of elobixibat in plasma, using an LC-MS/MS system.
The results for single subcutaneous (3 or 10 mg/kg) and intravenous (1 mg/kg) administrations are shown in FIG. 1, and the results for repeated subcutaneous administrations (1 mg/kg at day 1 and day 5) are shown in FIG. 2.

DDC mice = test: DDC in vivo model of cholestatic disease: serum chemistries; set-up: species or system male C57BL/6J WT mice
Text: (§1) Chronic feeding of 3,5-diethoxycarbonyl-1,4-dihydrocollidine (DDC) was used as an in vivo model for cholestatic liver injury. Chronic feeding of DDC produces an intraductal porphyrin plug which leads to ductular obstruction contributing to damage of biliary epithelia. The time course of the DDC model usually ranges from 1 to 6 weeks, depending on the severity of the cholangiopathy that the study requires. Chronic feeding of DDC in mice reproduces the main histopathological hallmarks of human cholestatic disease such as (1) remodeling of biliary compartments giving rise to ductular reaction, (2) periductular fibrosis, and (3) inflammatory infiltrate (Mariotti et al., Biochim Biophys Acta Mol Basis Dis 2018, vol. 1864, p. 1254-1261; Pose et al., Methods Mol. Biol. 2019, vol. 1981, p. 249-257).
(§2) Male C57BL/6J WT mice of 8 weeks old were used. After completion of quarantine and acclimatization period, animals were randomized based on body weight into experimental groups (n=7-9/group). Animals were fed chow (control diet) or chow plus 0.1% DDC (DDC diet) for 14 days, and treated once daily with vehicle (s.c.) or the ASBT inhibitor elobixibat at a dose of 0.3, 1.0 or 3.0 mg/kg (s.c.), as shown in Table 1. Animals were weighed at days 7, 11 and 14. Blood samples were collected at day 7. On day 11, animals were moved to individual cages with wire bottom for fecal collection. Blood, urine, tissue samples and 3-day fecal samples were collected at day 14.
Endpoints measured at the end of the study include fecal bile acid excretion, urine and serum bile acid concentration and composition, and serum chemistries reflecting liver status.

[2] = tested on: KIM-1 (kidney injury molecule-1); test: DDC model: mRNA expression of renal proximal tubule cell injury marker KIM-1; format: in vivo, male C57BL/6J WT mice; conditions: DDC cholestatic mice, s.c. elobixibat versus vehicle, 14 days (FIG. 6)
Text: as §1
as §2, with “Blood, urine, tissue samples and 3-day fecal samples were collected at day 14.” left out

LCN2 (lipocalin-2) = test: DDC model: mRNA expression of renal proximal tubule cell injury marker LCN2; format: in vivo, male C57BL/6J WT mice; conditions: DDC cholestatic mice, s.c. elobixibat versus vehicle, 14 days (FIG. 7)
Text: as §1
as §2, with “Blood, urine, tissue samples and 3-day fecal samples were collected at day 14.” left out

[3] = subcutaneous administration (FIG. 1)

For CCCCC1(CCCC)CN(c2ccccc2)c2cc(SC)c(OCC(=O)N[C@@H](C(=O)NCC(=O)O)c3ccccc3)cc2S(=O)(=O)C1 [elobixibat, 1,1-dioxo-3,3-dibutyl-5-phenyl-7-methylthio-8-(N-{(R)-1′-phenyl-1′-[N′-(carboxymethyl)-carbamoyl]methyl}carbamoylmethoxy)-2,3,4,5-tetrahydro-1,5-benzothiazepine], the clearance ([1]; intravenous administration (FIG. 1)) was “quick clearance”, the bioavailability [1, 3] was “high bioavailability” and the “duration of constant exposure” value [1, 3] was “more than 24 hours”. For the same compound, the “serum alkaline phosphatase (ALP) levels” value (DDC mice; s.c. once daily 0.3, 1.0 or 3.0 mg/kg for 14 days (FIG. 5)) was “dose-dependent trend towards reduced”, the serum bile acids (DDC mice; s.c. once daily 0.3, 1.0 or 3.0 mg/kg for 14 days, reduced at lowest dose, no additional reduction at higher doses (FIG. 3)) was “statistically significant reduction” and the serum total bilirubin (DDC mice; s.c. once daily 0.3, 1.0 or 3.0 mg/kg for 14 days, reduced at lowest dose, no additional reduction at higher doses (FIG. 4)) was “statistically significant reduction”. The “mRNA expression for KIM-1” value [2] was “reduced” and the “mRNA expression for LCN2” value (LCN2 (lipocalin-2)) was “reduced”.
